Measured values as given in publication PMC8213057, “Targeting ALK2: An Open Science Approach to Developing Therapeutics for the Treatment of Diffuse Intrinsic Pontine Glioma” (Journal of Medicinal Chemistry, 2020).

Columns and labels:
CDK6/cyclin D1 = CDK6/cyclin D1 (Homo sapiens, UniProt Q00534); experiment: biochemical; details: read-out: % enzyme activity, 1 μM; Run 1, Run 2
TRKA = TRKA (Homo sapiens, UniProt P04629); experiment: biochemical; details: read-out: % enzyme activity, 1 μM; Run 1, Run 2
TRKA, sequence (P04629 33-796): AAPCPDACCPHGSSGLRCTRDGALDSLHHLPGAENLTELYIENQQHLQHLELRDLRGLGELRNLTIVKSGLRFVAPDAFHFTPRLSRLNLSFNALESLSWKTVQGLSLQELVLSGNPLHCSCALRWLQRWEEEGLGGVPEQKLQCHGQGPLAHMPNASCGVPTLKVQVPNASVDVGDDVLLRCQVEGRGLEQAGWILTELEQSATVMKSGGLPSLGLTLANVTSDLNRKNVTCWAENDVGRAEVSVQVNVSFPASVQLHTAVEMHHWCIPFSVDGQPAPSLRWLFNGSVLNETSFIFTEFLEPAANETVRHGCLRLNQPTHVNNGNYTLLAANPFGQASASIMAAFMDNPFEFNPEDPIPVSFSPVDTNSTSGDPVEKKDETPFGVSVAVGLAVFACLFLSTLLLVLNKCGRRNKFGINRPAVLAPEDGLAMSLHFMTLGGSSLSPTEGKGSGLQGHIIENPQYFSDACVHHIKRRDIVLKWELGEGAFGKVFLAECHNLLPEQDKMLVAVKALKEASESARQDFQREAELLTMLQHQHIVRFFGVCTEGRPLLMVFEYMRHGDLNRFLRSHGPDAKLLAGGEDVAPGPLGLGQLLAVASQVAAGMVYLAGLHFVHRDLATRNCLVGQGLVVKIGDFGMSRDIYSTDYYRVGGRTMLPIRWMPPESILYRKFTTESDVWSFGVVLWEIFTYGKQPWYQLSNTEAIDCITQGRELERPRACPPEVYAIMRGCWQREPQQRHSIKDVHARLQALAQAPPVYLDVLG

FYN = FYN (Homo sapiens, UniProt P06241); details: 1 μM; Run 1, Run 2
DMPK = target: T1, DMPK (Homo sapiens, UniProt Q09013); experiment: biochemical; details: read-out: % enzyme activity, 1 μM; Run 1, Run 2
T1 sequence (Q09013 1-629): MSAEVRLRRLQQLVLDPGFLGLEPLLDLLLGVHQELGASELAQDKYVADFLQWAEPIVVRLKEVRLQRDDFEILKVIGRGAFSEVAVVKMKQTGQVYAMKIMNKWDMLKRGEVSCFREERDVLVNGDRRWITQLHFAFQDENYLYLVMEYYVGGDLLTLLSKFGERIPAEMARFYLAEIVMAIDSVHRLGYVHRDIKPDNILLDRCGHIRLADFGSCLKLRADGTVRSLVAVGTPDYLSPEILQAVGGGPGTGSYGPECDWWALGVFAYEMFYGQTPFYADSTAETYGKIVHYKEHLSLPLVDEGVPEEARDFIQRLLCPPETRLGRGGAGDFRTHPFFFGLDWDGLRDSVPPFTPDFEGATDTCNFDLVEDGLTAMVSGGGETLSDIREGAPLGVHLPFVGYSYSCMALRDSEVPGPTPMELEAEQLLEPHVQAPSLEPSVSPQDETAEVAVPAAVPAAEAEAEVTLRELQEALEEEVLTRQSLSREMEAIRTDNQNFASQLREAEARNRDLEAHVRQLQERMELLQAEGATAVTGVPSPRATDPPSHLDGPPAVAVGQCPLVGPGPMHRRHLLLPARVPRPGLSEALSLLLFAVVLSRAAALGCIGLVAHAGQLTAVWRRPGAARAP

CDK2/cyclin A = CDK2/cyclin A (Homo sapiens, UniProt P24941); experiment: biochemical; details: read-out: % enzyme activity, 1 μM; Run 1, Run 2
CK1g1 = CK1g1 (Homo sapiens, UniProt Q9HCP0); experiment: biochemical; details: read-out: % enzyme activity, 1 μM; Run 1, Run 2
CK1g1, sequence (Q9HCP0 whole entry): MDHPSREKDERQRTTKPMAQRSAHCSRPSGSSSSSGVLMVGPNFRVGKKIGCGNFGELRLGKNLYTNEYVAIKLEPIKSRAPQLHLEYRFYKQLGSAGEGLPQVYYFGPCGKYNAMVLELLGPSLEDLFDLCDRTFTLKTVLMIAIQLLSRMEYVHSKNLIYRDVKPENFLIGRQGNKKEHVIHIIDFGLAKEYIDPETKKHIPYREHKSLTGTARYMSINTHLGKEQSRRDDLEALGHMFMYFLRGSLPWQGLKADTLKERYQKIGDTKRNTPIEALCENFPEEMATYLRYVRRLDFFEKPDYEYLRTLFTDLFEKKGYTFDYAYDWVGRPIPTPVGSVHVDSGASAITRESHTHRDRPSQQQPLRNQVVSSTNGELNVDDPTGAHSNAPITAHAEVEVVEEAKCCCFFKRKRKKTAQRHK

GRK6 = GRK6 (Homo sapiens, UniProt P43250); details: 1 μM; Run 1, Run 2
NEK2 = target: T2, NEK2 (Homo sapiens, UniProt P51955); experiment: biochemical; details: read-out: % enzyme activity, 1 μM; Run 1, Run 2
T2 sequence (P51955 1-445): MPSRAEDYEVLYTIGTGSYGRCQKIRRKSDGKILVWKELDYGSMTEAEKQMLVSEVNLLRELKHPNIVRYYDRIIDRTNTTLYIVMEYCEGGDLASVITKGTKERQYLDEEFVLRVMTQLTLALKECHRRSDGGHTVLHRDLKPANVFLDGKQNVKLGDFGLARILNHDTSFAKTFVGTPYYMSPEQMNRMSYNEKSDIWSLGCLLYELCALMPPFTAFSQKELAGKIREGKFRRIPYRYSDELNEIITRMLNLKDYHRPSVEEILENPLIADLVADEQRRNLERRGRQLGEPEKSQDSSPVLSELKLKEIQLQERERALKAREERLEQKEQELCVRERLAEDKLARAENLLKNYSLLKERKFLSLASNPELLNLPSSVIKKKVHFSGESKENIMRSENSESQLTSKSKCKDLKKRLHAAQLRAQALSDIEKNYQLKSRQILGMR

EPHA3 = target: T3, EPHA3 (Homo sapiens, UniProt P29320); experiment: biochemical; details: read-out: % enzyme activity, 1 μM; Run 1, Run 2
T3 sequence (P29320 21-983): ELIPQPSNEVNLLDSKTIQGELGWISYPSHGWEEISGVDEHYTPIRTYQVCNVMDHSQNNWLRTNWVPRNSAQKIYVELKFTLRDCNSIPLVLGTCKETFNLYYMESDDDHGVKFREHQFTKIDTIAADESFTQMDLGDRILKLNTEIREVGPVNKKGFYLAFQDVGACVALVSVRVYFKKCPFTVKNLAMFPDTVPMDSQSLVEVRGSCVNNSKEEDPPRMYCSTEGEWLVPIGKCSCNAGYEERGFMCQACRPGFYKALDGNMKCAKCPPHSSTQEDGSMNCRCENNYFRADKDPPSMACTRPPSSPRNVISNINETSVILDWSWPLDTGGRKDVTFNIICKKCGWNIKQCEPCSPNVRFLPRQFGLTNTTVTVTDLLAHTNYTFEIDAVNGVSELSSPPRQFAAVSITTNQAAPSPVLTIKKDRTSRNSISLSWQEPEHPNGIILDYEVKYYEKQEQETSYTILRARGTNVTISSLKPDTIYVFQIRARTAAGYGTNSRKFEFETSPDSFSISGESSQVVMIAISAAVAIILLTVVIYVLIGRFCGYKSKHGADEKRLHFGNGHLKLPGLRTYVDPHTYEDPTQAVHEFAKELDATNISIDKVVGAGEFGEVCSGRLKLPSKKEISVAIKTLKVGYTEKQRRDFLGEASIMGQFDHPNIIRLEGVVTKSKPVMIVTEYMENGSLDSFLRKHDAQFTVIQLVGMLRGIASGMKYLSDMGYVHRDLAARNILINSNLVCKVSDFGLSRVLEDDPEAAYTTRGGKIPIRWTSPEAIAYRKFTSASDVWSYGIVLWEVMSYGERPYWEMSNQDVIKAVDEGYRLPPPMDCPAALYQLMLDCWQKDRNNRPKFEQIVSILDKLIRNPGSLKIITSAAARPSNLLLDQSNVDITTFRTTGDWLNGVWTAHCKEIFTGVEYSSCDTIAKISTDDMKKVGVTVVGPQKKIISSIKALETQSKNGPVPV

TTBK2 = TTBK2 (Homo sapiens, UniProt Q6IQ55); details: 1 μM; Run 1, Run 2
ZIPK/DAPK3 = ZIPK/DAPK3 (Homo sapiens, UniProt O43293); details: 1 μM; Run 1, Run 2
ZIPK/DAPK3, sequence (O43293 whole entry): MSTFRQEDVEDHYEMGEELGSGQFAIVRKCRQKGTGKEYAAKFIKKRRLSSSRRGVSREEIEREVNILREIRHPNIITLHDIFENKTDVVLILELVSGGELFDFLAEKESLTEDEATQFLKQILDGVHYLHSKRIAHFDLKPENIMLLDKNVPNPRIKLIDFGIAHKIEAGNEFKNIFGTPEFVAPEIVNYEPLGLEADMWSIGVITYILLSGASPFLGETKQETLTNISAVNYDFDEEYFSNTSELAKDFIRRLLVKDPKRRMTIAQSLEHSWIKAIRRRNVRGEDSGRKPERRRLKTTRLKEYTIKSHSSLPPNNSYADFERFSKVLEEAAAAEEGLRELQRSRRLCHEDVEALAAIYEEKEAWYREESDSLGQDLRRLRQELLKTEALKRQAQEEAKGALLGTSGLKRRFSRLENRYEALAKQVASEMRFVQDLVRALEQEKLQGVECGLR

CDK5/P25 = CDK5/P25 (Homo sapiens, UniProt Q00535); experiment: biochemical; details: read-out: % enzyme activity, 1 μM; Run 1, Run 2
CDK5/P25, sequence (Q00535 whole entry): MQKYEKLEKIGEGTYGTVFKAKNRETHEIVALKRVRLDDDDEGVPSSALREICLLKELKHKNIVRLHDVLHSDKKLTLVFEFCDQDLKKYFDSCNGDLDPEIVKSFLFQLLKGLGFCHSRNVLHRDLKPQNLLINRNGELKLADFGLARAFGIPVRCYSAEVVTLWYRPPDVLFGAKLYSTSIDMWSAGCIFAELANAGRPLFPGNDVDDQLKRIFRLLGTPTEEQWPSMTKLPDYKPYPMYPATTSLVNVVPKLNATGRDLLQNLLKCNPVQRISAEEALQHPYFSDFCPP
CDK5/P25, sequence (Q15078 99-307 partner limits assumed): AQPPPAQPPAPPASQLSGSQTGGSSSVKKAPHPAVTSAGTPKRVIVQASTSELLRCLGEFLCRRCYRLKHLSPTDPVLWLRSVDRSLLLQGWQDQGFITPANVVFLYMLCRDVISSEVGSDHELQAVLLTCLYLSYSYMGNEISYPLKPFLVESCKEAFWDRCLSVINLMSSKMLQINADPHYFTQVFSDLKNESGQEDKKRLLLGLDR

EPHA7 = EPHA7 (Homo sapiens, UniProt Q15375); experiment: biochemical; details: read-out: % enzyme activity, 1 μM; Run 1, Run 2
EPHA7, sequence (Q15375 28-998): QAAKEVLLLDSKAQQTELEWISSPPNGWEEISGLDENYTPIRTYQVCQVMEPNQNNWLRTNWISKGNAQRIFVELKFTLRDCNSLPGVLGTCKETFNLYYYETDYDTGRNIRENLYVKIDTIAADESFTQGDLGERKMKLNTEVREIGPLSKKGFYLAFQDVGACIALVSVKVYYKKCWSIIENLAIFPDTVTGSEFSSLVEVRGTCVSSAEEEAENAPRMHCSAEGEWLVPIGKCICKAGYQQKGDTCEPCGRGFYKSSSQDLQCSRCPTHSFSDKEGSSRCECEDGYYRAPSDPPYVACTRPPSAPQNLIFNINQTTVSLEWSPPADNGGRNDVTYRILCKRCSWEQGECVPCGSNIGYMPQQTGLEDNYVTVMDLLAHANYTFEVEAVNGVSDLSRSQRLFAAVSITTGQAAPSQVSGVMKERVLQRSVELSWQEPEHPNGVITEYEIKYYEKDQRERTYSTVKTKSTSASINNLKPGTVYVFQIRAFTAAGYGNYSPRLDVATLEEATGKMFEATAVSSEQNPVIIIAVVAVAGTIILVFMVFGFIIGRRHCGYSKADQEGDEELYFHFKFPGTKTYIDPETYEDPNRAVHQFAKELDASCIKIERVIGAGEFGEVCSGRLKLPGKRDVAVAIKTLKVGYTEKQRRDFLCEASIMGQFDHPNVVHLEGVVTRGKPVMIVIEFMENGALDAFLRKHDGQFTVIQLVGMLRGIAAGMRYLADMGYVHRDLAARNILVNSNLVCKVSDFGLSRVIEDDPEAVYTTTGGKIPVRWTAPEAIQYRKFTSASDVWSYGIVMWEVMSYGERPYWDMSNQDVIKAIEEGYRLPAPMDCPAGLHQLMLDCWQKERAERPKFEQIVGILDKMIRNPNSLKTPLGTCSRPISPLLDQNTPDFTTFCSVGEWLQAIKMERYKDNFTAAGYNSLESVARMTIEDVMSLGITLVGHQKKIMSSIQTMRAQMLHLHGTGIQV

FGFR1 = FGFR1 (Homo sapiens, UniProt P11362); details: 1 μM; Run 1, Run 2
FGFR1, sequence (P11362 22-822): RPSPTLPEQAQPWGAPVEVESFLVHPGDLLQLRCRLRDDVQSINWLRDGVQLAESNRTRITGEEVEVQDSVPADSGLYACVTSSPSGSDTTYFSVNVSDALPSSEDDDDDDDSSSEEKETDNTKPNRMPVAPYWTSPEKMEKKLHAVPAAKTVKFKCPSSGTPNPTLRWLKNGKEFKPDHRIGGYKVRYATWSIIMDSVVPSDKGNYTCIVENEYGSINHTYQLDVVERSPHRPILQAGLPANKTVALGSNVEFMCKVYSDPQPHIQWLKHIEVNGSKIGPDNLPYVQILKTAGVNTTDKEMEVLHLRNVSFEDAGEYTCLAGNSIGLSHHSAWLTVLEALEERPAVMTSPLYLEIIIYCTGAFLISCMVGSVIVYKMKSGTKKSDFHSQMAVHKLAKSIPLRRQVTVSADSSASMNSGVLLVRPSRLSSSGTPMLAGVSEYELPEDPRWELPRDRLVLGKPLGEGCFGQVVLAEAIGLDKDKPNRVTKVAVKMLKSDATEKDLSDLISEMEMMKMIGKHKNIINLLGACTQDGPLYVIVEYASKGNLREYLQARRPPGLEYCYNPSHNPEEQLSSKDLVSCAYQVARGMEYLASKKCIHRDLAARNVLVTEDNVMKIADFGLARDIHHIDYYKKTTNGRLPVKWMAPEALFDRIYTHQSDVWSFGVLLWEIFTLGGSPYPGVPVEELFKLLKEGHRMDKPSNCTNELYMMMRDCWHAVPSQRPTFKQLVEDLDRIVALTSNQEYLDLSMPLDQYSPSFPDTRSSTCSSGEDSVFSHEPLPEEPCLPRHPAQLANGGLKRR

FGFR2 = FGFR2 (Homo sapiens, UniProt P21802); experiment: biochemical; details: read-out: % enzyme activity, 1 μM; Run 1, Run 2

CDK6/cyclin D1, sequence (Q00534 whole entry): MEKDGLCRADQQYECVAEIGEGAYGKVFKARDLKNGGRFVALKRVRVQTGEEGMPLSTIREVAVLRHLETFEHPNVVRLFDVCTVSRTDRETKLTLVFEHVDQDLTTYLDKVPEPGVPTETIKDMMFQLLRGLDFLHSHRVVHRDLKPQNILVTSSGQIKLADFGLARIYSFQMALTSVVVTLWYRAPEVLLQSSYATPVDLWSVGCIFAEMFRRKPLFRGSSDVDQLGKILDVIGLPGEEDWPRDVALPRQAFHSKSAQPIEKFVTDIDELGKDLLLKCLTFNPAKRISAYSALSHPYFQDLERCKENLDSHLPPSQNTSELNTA
CDK6/cyclin D1, sequence (P24385 whole entry partner): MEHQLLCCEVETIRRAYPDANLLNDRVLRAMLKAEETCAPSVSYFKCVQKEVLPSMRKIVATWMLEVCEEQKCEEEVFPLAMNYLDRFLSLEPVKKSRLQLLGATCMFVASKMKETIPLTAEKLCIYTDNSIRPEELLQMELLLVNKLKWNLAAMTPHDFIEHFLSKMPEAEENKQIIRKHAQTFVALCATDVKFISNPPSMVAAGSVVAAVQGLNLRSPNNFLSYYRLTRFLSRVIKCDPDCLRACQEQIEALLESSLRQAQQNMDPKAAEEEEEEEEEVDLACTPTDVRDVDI

| Compound | remaining activity at 1 µM (CDK6/cyclin D1) [%] | remaining activity at 1 µM (TRKA) [%] | % enzyme activity (FYN) [%] | remaining activity at 1 µM (DMPK) [%] | remaining activity at 1 µM (CDK2/cyclin A) [%] | remaining activity at 1 µM (CK1g1) [%] | % enzyme activity (GRK6) [%] | remaining activity at 1 µM (NEK2) [%] | remaining activity at 1 µM (EPHA3) [%] | % enzyme activity (TTBK2) [%] | % enzyme activity (ZIPK/DAPK3) [%] | remaining activity at 1 µM (CDK5/P25) [%] | remaining activity at 1 µM (EPHA7) [%] | % enzyme activity (FGFR1) [%] | remaining activity at 1 µM (FGFR2) [%] | CYP inhibition (CYP3A4-Testosterone) [µM] |
| --- | --- | --- | --- | --- | --- | --- | --- | --- | --- | --- | --- | --- | --- | --- | --- | --- |
| COc1cc(-c2cncc(-c3ccc(N4CCN(C)CC4)cc3)c2C)cc(F)c1C(N)=O [Compound 26a, 2-Fluoro-6-methoxy-4-(4-methyl-5-(4-(4-methylpiperazin-1-yl)phenyl)pyridin-3-yl)benzamide] | 100 | 91.8 | 97.69 | 109 | 100 | 57.7 | 107.43 | 92.3 | 95.7 | 94.62 | 103.31 | 94.6 | 101 | 96.52 | 95.5 | > 50 |
| COc1cc(-c2cncc(-c3ccc(N4C[C@@H](C)N(C)[C@@H](C)C4)cc3)c2C)cc(F)c1C(N)=O [Compound 26c, 2-Fluoro-6-methoxy-4-(4-methyl-5-(4-((3R,5S)-3,4,5-trimethylpiperazin-1-yl)phenyl)pyridin-3-yl)benzamide] | 95.9 | 95.2 | 96.30 | 105 | 100 | 71.7 | 94.12 | 98.5 | 101 | 96.48 | 102.34 | 94.8 | 98.4 | 99.91 | 91.9 | > 50 |
